Test results taken from patent publication US6423494B1, “DR6 and uses thereof” (Millennium Pharmaceuticals, Inc., priority 1999, dated 2002).

These compounds were tested on colon cancer cell line SW-620 (assay: Drug sensitivity of colon cancer cell line SW-620 (NCI60 panel)). Conditions: SW-620 colon cancer cell line, in which DR6 does not appear to be expressed (Northern analysis).
Format: cell-based, human
Experimental: In order to identify genes involved in drug resistance, the expression various genes in drug resistant cancer cells was measured. The drug resistant cancer cell lines used were all members of the NCI60 panel of drug resistant cell lines. The cell lines in this panel are resistant to one or more chemotherapeutic compounds.

Compound	sensitivity of the cell line to the drug
O=C(O)CCCc1ccc(N(CCCl)CCCl)cc1 [chlorambucil]	relatively sensitive
N.N.[Cl][Pt][Cl] [cisplatin]	relatively sensitive
COc1cccc2c1C(=O)c1c(O)c3c(c(O)c1C2=O)C[C@@](O)(C(=O)CO)C[C@@H]3O[C@H]1C[C@H](N)[C@H](O)[C@H](C)O1 [doxorubicin]	relatively sensitive
COc1cc([C@@H]2c3cc4c(cc3[C@@H](O[C@@H]3O[C@@H]5CO[C@@H](C)O[C@H]5[C@H](O)[C@H]3O)[C@H]3COC(=O)[C@H]23)OCO4)cc(OC)c1O [etoposide]	relatively sensitive
CC[C@@]1(O)C(=O)OCc2c1cc1n(c2=O)Cc2cc3c(CN(C)C)c(O)ccc3nc2-1 [topotecan]	relatively sensitive
